Results reported in the supplement of paper PMC10307832.

Assays:
Assay in all cases: relative viability (nuclei count vs DMSO), 5 days (fraction); higher = more cells survive
NCI-H1792 = system: NCI-H1792
In short: (§1)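 Lung cancer cell lines were pin-tool dosed in 1536-well plates on the day after seeding, with either a lone drug or a fixed anchor-drug dose plus five library-drug doses (not always all listed) in √10 steps. Nuclei were counted on 4× images after 5 days. Relative viability is the ratio of treated-well to vehicle-well nuclei counts, with each value a median of duplicate plates.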

HCC-827 = system: HCC-827
In short: as §1

EKVX = system: EKVX
In short: as §1

NCI-H2009 = system: NCI-H2009
In short: as §1

NCI-H2087 = system: NCI-H2087
In short: as §1

NCI-H2405 = system: NCI-H2405
In short: as §1

NCI-H2170 = system: NCI-H2170
In short: as §1

LC-2-ad = system: LC-2-ad
In short: as §1

BEN = system: BEN
In short: as §1

NCI-H2342 = system: NCI-H2342
In short: as §1

SK-MES-1 = system: SK-MES-1
In short: as §1

NCI-H1734 = system: NCI-H1734
In short: as §1

NCI-H1395 = system: NCI-H1395
In short: as §1

NCI-H1355 = system: NCI-H1355
In short: as §1

HCC-366 = system: HCC-366
In short: as §1

NCI-H2228 = system: NCI-H2228
In short: as §1

NCI-H596 = system: NCI-H596
In short: as §1

HARA = system: HARA
In short: as §1

NCI-H647 = system: NCI-H647
In short: as §1

SK-LU-1 = system: SK-LU-1
In short: as §1

LOU-NH91 = system: LOU-NH91
In short: as §1

NCI-H661 = system: NCI-H661
In short: as §1

NCI-H1437 = system: NCI-H1437
In short: as §1

C=C1C(=O)O[C@@H](CCCCCCCC)[C@@H]1C(=O)O [C-75] + N=C(N)NC(=N)NCCc1ccccc1 [Phenformin] (partner 250 µM) was tested, and the relative viability (NCI-H1792; first compound 0.08 µM) was 0.236, the relative viability (NCI-H1792; first compound 0.253 µM) was 0.216 and the relative viability (NCI-H1792; first compound 2.53 µM) was 0.113. It also gave a relative viability (NCI-H1792; first compound 8 µM) of 0.206, a relative viability (HCC-827; first compound 0.08 µM) of 0.428 and a relative viability (HCC-827; first compound 0.253 µM) of 0.391. The relative viability (HCC-827; first compound 0.8 µM) was 0.38, the relative viability (HCC-827; first compound 2.53 µM) was 0.36 and the relative viability (HCC-827; first compound 8 µM) was 0.42. For the same compound, the relative viability (EKVX; first compound 0.08 µM) was 0.213, the relative viability (EKVX; first compound 0.253 µM) was 0.228 and the relative viability (EKVX; first compound 0.8 µM) was 0.232. It also gave a relative viability (EKVX; first compound 8 µM) of 0.25, a relative viability (NCI-H2009; first compound 0.08 µM) of 0.487 and a relative viability (NCI-H2009; first compound 0.253 µM) of 0.534. For the same compound, the relative viability (NCI-H2009; first compound 0.8 µM) was 0.448, the relative viability (NCI-H2009; first compound 2.53 µM) was 0.427 and the relative viability (NCI-H2009; first compound 8 µM) was 0.422. The relative viability (NCI-H2087; first compound 0.08 µM) was 0.409, the relative viability (NCI-H2087; first compound 0.253 µM) was 0.597 and the relative viability (NCI-H2087; first compound 0.8 µM) was 0.428. It also gave a relative viability (NCI-H2087; first compound 2.53 µM) of 0.279, a relative viability (NCI-H2087; first compound 8 µM) of 0.48 and a relative viability (NCI-H2405; first compound 0.08 µM) of 0.387. For the same compound, the relative viability (NCI-H2405; first compound 0.253 µM) was 0.331, the relative viability (NCI-H2405; first compound 0.8 µM) was 0.405 and the relative viability (NCI-H2405; first compound 2.53 µM) was 0.368. For the same compound, the relative viability (NCI-H2405; first compound 8 µM) was 0.45, the relative viability (NCI-H2170; first compound 0.08 µM) was 0.469 and the relative viability (NCI-H2170; first compound 0.253 µM) was 0.453. It also gave a relative viability (NCI-H2170; first compound 0.8 µM) of 0.419, a relative viability (NCI-H2170; first compound 2.53 µM) of 0.404 and a relative viability (NCI-H2170; first compound 8 µM) of 0.481. The relative viability (LC-2-ad; first compound 0.08 µM) was 0.561, the relative viability (LC-2-ad; first compound 0.253 µM) was 0.566 and the relative viability (LC-2-ad; first compound 0.8 µM) was 0.544. For the same compound, the relative viability (LC-2-ad; first compound 2.53 µM) was 0.483, the relative viability (LC-2-ad; first compound 8 µM) was 0.54 and the relative viability (BEN; first compound 0.08 µM) was 0.266. It also gave a relative viability (BEN; first compound 0.253 µM) of 0.274, a relative viability (BEN; first compound 0.8 µM) of 0.297 and a relative viability (BEN; first compound 8 µM) of 0.258. The relative viability (NCI-H2342; first compound 0.08 µM) was 0.542, the relative viability (NCI-H2342; first compound 0.253 µM) was 0.634 and the relative viability (NCI-H2342; first compound 0.8 µM) was 0.664. It also gave a relative viability (NCI-H2342; first compound 2.53 µM) of 0.512, a relative viability (NCI-H2342; first compound 8 µM) of 0.524 and a relative viability (SK-MES-1; first compound 0.08 µM) of 0.652. The relative viability (SK-MES-1; first compound 0.253 µM) was 0.697, the relative viability (SK-MES-1; first compound 0.8 µM) was 0.636 and the relative viability (SK-MES-1; first compound 2.53 µM) was 0.658. The relative viability (SK-MES-1; first compound 8 µM) was 0.702, the relative viability (NCI-H1734; first compound 0.08 µM) was 0.413 and the relative viability (NCI-H1734; first compound 0.253 µM) was 0.427. The relative viability (NCI-H1734; first compound 0.8 µM) was 0.356, the relative viability (NCI-H1734; first compound 2.53 µM) was 0.286 and the relative viability (NCI-H1734; first compound 8 µM) was 0.283. The relative viability (NCI-H1395; first compound 0.08 µM) was 0.452, the relative viability (NCI-H1395; first compound 0.253 µM) was 0.454 and the relative viability (NCI-H1395; first compound 0.8 µM) was 0.435. It also gave a relative viability (NCI-H1395; first compound 2.53 µM) of 0.45, a relative viability (NCI-H1395; first compound 8 µM) of 0.514 and a relative viability (NCI-H1355; first compound 0.08 µM) of 0.488. The relative viability (NCI-H1355; first compound 0.253 µM) was 0.444, the relative viability (NCI-H1355; first compound 0.8 µM) was 0.452 and the relative viability (NCI-H1355; first compound 2.53 µM) was 0.401. The relative viability (NCI-H1355; first compound 8 µM) was 0.484, the relative viability (HCC-366; first compound 0.08 µM) was 0.586 and the relative viability (HCC-366; first compound 0.253 µM) was 0.634. For the same compound, the relative viability (HCC-366; first compound 0.8 µM) was 0.61, the relative viability (HCC-366; first compound 8 µM) was 0.571 and the relative viability (NCI-H2228; first compound 0.08 µM) was 0.294. The relative viability (NCI-H2228; first compound 0.253 µM) was 0.304, the relative viability (NCI-H2228; first compound 0.8 µM) was 0.33 and the relative viability (NCI-H2228; first compound 2.53 µM) was 0.244. For the same compound, the relative viability (NCI-H2228; first compound 8 µM) was 0.277, the relative viability (NCI-H596; first compound 0.08 µM) was 0.891 and the relative viability (NCI-H596; first compound 0.253 µM) was 0.766. The relative viability (NCI-H596; first compound 0.8 µM) was 0.846, the relative viability (NCI-H596; first compound 2.53 µM) was 0.513 and the relative viability (NCI-H596; first compound 8 µM) was 0.717. It also gave a relative viability (HARA; first compound 0.08 µM) of 0.46, a relative viability (HARA; first compound 0.253 µM) of 0.487 and a relative viability (HARA; first compound 0.8 µM) of 0.342. For the same compound, the relative viability (HARA; first compound 2.53 µM) was 0.306, the relative viability (HARA; first compound 8 µM) was 0.434 and the relative viability (NCI-H647; first compound 0.08 µM) was 0.52. For the same compound, the relative viability (NCI-H647; first compound 0.253 µM) was 0.58, the relative viability (NCI-H647; first compound 0.8 µM) was 0.417 and the relative viability (NCI-H647; first compound 2.53 µM) was 0.374. It also gave a relative viability (NCI-H647; first compound 8 µM) of 0.382, a relative viability (SK-LU-1; first compound 0.08 µM) of 0.52 and a relative viability (SK-LU-1; first compound 0.253 µM) of 0.524. For the same compound, the relative viability (SK-LU-1; first compound 0.8 µM) was 0.515, the relative viability (SK-LU-1; first compound 2.53 µM) was 0.425 and the relative viability (SK-LU-1; first compound 8 µM) was 0.423. For the same compound, the relative viability (LOU-NH91; first compound 0.08 µM) was 0.715, the relative viability (LOU-NH91; first compound 0.253 µM) was 0.741 and the relative viability (LOU-NH91; first compound 0.8 µM) was 0.612. For the same compound, the relative viability (LOU-NH91; first compound 2.53 µM) was 0.532, the relative viability (LOU-NH91; first compound 8 µM) was 0.749 and the relative viability (NCI-H661; first compound 0.08 µM) was 0.313. The relative viability (NCI-H661; first compound 0.253 µM) was 0.271, the relative viability (NCI-H661; first compound 0.8 µM) was 0.296 and the relative viability (NCI-H661; first compound 2.53 µM) was 0.237. It also gave a relative viability (NCI-H661; first compound 8 µM) of 0.288, a relative viability (NCI-H1437; first compound 0.08 µM) of 0.322 and a relative viability (NCI-H1437; first compound 0.253 µM) of 0.323. For the same compound, the relative viability (NCI-H1437; first compound 0.8 µM) was 0.302, the relative viability (NCI-H1437; first compound 2.53 µM) was 0.284 and the relative viability (NCI-H1437; first compound 8 µM) was 0.296.
